Assay results published in paper PMC9005681, “Use of AD Informer Set compounds to explore validity of novel targets in Alzheimer's disease pathology” (Alzheimer's & Dementia : Translational Research & Clinical …, 2022).
“And” between values parts separate entries of the source, which are not always exact repeats. Identical values can stand only once.

Tests used:
Assay in all cases: PDSP GPCR panel primary binding assays at 10 μM
Settings in all cases: primary assay
[1] = molecular target: T1, cloned human or rodent CNS receptors, channels, and transporters (PDSP panel) (Homo sapiens, UniProt P46098)
T1 construct: expressed in transfected cells
T1 sequence (P46098 24-478): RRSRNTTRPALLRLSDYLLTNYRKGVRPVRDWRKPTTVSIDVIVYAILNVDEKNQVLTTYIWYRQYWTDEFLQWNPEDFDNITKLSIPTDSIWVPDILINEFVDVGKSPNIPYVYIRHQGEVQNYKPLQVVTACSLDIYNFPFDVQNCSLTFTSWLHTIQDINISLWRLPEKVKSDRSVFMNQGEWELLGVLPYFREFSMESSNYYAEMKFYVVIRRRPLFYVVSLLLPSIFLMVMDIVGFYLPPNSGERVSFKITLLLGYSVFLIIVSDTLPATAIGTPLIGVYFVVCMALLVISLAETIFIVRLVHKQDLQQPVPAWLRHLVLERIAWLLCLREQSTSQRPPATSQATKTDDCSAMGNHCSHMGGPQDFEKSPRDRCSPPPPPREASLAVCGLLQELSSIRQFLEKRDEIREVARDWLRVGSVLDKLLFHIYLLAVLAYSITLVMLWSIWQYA
How it was run: (§1)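 PDSP panel of 46–47 cloned human or rodent CNS receptors, channels and transporters; radioligand displacement by compound at 10 μM, in quadruplicate. Where average displacement exceeded 50%, secondary binding followed as 11-point dose-response in triplicate (none for H3, PBR or GABAA).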

[2] = molecular target: T2, cloned human or rodent CNS receptors, channels, and transporters (PDSP panel) (Homo sapiens, UniProt P35462)
T2 construct: expressed in transfected cells
T2 sequence (P35462 whole entry): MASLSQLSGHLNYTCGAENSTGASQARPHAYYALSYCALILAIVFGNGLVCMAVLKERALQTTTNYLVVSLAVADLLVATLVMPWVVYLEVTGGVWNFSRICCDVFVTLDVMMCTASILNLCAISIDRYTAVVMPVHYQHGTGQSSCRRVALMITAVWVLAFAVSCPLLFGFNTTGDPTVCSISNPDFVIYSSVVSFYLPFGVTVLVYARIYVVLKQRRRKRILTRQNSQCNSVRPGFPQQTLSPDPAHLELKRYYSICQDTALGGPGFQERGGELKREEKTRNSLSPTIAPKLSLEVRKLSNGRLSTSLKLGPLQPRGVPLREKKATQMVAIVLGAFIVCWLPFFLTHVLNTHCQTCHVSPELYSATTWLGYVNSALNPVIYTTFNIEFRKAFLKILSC
How it was run: as §1

[3] = molecular target: T3, cloned human or rodent CNS receptors, channels, and transporters (PDSP panel) (Homo sapiens, UniProt P11229)
T3 construct: expressed in transfected cells
T3 sequence (P11229 1-460): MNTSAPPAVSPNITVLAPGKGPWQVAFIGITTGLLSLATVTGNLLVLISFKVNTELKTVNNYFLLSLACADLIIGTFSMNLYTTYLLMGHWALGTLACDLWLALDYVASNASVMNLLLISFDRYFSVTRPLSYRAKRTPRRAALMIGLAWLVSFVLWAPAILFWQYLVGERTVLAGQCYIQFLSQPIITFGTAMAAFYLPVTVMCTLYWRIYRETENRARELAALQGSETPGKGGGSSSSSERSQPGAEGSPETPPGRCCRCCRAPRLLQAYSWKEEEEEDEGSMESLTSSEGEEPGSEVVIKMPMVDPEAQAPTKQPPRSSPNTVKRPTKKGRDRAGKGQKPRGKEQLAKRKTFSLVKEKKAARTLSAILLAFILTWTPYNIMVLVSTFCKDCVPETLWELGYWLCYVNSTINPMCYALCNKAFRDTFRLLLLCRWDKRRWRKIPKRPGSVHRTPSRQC
How it was run: as §1

[4] = molecular target: T4, cloned human or rodent CNS receptors, channels, and transporters (PDSP panel) (Homo sapiens, UniProt P28223)
T4 construct: expressed in transfected cells
T4 sequence (P28223 whole entry): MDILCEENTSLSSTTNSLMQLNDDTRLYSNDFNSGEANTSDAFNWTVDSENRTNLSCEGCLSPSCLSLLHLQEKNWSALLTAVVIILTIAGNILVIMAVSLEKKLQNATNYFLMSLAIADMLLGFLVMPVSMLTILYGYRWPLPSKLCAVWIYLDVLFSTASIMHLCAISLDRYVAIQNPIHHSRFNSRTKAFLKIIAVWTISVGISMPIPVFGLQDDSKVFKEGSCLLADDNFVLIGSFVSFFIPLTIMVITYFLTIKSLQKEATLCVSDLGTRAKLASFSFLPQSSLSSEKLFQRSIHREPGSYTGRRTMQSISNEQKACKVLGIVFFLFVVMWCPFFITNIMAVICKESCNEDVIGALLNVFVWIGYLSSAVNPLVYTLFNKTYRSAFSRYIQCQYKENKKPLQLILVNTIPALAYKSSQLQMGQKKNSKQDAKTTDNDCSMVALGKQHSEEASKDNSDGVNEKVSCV
How it was run: as §1

[5] = molecular target: T5, cloned human or rodent CNS receptors, channels, and transporters (PDSP panel) (Homo sapiens, UniProt P41145)
T5 construct: expressed in transfected cells
T5 sequence (P41145 whole entry): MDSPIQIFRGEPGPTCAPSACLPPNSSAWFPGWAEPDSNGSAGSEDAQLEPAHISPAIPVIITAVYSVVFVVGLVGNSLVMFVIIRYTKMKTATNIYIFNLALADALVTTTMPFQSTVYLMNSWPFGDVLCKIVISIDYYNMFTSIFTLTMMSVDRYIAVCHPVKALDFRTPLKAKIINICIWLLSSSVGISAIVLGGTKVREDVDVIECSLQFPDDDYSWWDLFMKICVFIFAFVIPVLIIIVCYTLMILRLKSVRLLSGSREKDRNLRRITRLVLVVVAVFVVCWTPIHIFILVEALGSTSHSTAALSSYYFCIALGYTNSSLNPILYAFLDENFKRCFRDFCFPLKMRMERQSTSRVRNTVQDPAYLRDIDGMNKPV
How it was run: as §1

[6] = molecular target: T6, cloned human or rodent CNS receptors, channels, and transporters (PDSP panel) (Rattus norvegicus, UniProt P16257)
T6 construct: expressed in transfected cells
How it was run: as §1

[7] = molecular target: T7, cloned human or rodent CNS receptors, channels, and transporters (PDSP panel) (Homo sapiens, UniProt P25021)
T7 construct: expressed in transfected cells
T7 sequence (P25021 whole entry): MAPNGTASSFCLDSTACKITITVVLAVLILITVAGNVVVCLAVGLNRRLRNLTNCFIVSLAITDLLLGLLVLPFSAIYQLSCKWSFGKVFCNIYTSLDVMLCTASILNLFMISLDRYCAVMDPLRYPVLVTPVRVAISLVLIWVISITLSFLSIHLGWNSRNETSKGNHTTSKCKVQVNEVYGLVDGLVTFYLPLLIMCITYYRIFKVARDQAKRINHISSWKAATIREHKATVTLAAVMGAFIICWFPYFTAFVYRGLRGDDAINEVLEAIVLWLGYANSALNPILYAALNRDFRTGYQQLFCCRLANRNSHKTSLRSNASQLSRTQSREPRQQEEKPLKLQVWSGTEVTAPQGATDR
How it was run: as §1

[8] = molecular target: T8, cloned human or rodent CNS receptors, channels, and transporters (PDSP panel) (Homo sapiens, UniProt P21917)
T8 construct: expressed in transfected cells
T8 sequence (P21917 1-419): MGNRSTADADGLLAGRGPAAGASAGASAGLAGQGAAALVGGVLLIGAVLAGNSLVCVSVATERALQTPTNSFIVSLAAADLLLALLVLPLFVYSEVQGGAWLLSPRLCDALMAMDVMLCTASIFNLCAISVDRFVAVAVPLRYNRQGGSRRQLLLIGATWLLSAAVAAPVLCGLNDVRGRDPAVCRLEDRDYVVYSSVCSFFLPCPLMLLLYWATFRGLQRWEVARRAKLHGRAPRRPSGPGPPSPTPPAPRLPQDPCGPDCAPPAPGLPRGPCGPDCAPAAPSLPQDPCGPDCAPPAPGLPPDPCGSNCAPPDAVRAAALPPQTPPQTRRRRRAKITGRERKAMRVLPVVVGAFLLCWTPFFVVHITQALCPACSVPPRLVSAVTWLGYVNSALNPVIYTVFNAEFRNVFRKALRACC
How it was run: as §1

Cl.NC(=O)c1cnc(N[C@@H]2CCCC[C@@H]2N)nc1Nc1cccc(-n2nccn2)c1 [UNC10302682A, P505-15 (PRT06207 HCl)]
Inhibition 1 ([1]; Receptor 5-HT3, 10 μM): 66.83%
Inhibition 2 ([1]; Receptor 5-HT3, 10 μM): 77.09%
Inhibition 3 ([1]; Receptor 5-HT3, 10 μM): 73.28%
Inhibition 4 ([1]; Receptor 5-HT3, 10 μM): 75.45%
Mean % ([1]; Receptor 5-HT3, 10 μM, mean of Inhibition 1-4): 73.16%
Inhibition 1 ([2]; Receptor D3, 10 μM): 15.21%
Inhibition 2 ([2]; Receptor D3, 10 μM): 7.11%
Inhibition 3 ([2]; Receptor D3, 10 μM): 21.57%
Inhibition 4 ([2]; Receptor D3, 10 μM): 8.07%
Mean % ([2]; Receptor D3, 10 μM, mean of Inhibition 1-4): 12.99%
Inhibition 1 ([3]; Receptor M1, 10 μM): 35.84%
Inhibition 2 ([3]; Receptor M1, 10 μM): 24.74%
Inhibition 3 ([3]; Receptor M1, 10 μM): 0.85%
Inhibition 4 ([3]; Receptor M1, 10 μM): 16.46%
Mean % ([3]; Receptor M1, 10 μM, mean of Inhibition 1-4): 19.47%
Inhibition 1 ([4]; Receptor 5-HT2A, 10 μM): 13.95%
Inhibition 2 ([4]; Receptor 5-HT2A, 10 μM): 2.61%
Inhibition 3 ([4]; Receptor 5-HT2A, 10 μM): 8.53%
Inhibition 4 ([4]; Receptor 5-HT2A, 10 μM): 0.63%
Mean % ([4]; Receptor 5-HT2A, 10 μM, mean of Inhibition 1-4): 6.43%
Inhibition 1 ([5]; Receptor KOR, 10 μM): -6.83%
Inhibition 2 ([5]; Receptor KOR, 10 μM): -18.02%
Inhibition 3 ([5]; Receptor KOR, 10 μM): -46.91%
Inhibition 4 ([5]; Receptor KOR, 10 μM): -15.34%
Mean % ([5]; Receptor KOR, 10 μM, mean of Inhibition 1-4): -21.78%
Inhibition 1 ([6]; Receptor PBR, 10 μM): 32.16% and 27.63%
Inhibition 2 ([6]; Receptor PBR, 10 μM): 2.97% and 6.1%
Inhibition 4 ([6]; Receptor PBR, 10 μM): 18.35% and 12.24%
Mean % ([6]; Receptor PBR, 10 μM, mean of Inhibition 1-4): 14.68% and 16.23%
Inhibition 1 ([7]; Receptor H2, 10 μM): 59.21%
Inhibition 2 ([7]; Receptor H2, 10 μM): 38.77%
Inhibition 3 ([7]; Receptor H2, 10 μM): 21.91%
Inhibition 4 ([7]; Receptor H2, 10 μM): -3.64%
Mean % ([7]; Receptor H2, 10 μM, mean of Inhibition 1-4): 29.06%
Inhibition 1 ([8]; Receptor D4, 10 μM): 7.46%
Inhibition 2 ([8]; Receptor D4, 10 μM): 12.14%
Inhibition 3 ([8]; Receptor D4, 10 μM): 13.58%
Inhibition 4 ([8]; Receptor D4, 10 μM): 14.53%
Mean % ([8]; Receptor D4, 10 μM, mean of Inhibition 1-4): 11.93%

CC(=O)N1CCC(NC(=O)NC23CC4CC(CC(C4)C2)C3)CC1 [UNC10302683A, AR9281]
Mean % ([1]; 5-HT3, mean inhibition): 13.87%
Inhibition 1 ([1]; 5-HT3, replicate 1): 9.48%
Inhibition 2 ([1]; 5-HT3, replicate 2): 13.6%
Inhibition 3 ([1]; 5-HT3, replicate 3): -1.71%
Inhibition 4 ([1]; 5-HT3, replicate 4): 34.11%
Mean % ([2]; D3, mean inhibition): -9.76%
Inhibition 1 ([2]; D3, replicate 1): -1.76%
Inhibition 2 ([2]; D3, replicate 2): -6.19%
Inhibition 3 ([2]; D3, replicate 3): -8.7%
Inhibition 4 ([2]; D3, replicate 4): -22.39%
Mean % ([3]; M1, mean inhibition): 7.62%
Inhibition 1 ([3]; M1, replicate 1): 23.24%
Inhibition 2 ([3]; M1, replicate 2): 6.49%
Inhibition 3 ([3]; M1, replicate 3): -4.8%
Inhibition 4 ([3]; M1, replicate 4): 5.55%
Mean % ([4]; 5-HT2A, mean inhibition): -3.07%
Inhibition 1 ([4]; 5-HT2A, replicate 1): -2.98%
Inhibition 2 ([4]; 5-HT2A, replicate 2): 1.29%
Inhibition 3 ([4]; 5-HT2A, replicate 3): -10.71%
Inhibition 4 ([4]; 5-HT2A, replicate 4): 0.14%
Mean % ([5]; KOR, mean inhibition): -25.19%
Inhibition 1 ([5]; KOR, replicate 1): -27.43%
Inhibition 2 ([5]; KOR, replicate 2): -29%
Inhibition 3 ([5]; KOR, replicate 3): -23.06%
Inhibition 4 ([5]; KOR, replicate 4): -21.27%
Inhibition 1 ([6]; PBR, replicate 1): 10.97% and 6.98%
Inhibition 2 ([6]; PBR, replicate 2): -9.87% and 57.06%
Inhibition 3 ([6]; PBR, replicate 3): -4.95% and 7.94%
Inhibition 4 ([6]; PBR, replicate 4): -4.51% and 19.02%
Mean % ([7]; H2, mean inhibition): -19%
Inhibition 1 ([7]; H2, replicate 1): 4.92%
Inhibition 2 ([7]; H2, replicate 2): -11.17%
Inhibition 3 ([7]; H2, replicate 3): -32.29%
Inhibition 4 ([7]; H2, replicate 4): -37.45%
Mean % ([8]; D4, mean inhibition): -0.6%
Inhibition 1 ([8]; D4, replicate 1): 1.15%
Inhibition 2 ([8]; D4, replicate 2): -3.44%
Inhibition 3 ([8]; D4, replicate 3): -3.44%
Inhibition 4 ([8]; D4, replicate 4): 3.35%
